Assays:
T. rubrum = test: PDT of T. rubrum on human stratum corneum (ex-vivo model), fungicidal effect; format: cell-based, Trichophyton rubrum; conditions: acidic pH versus pH 7.4
Experimental: A polycarbonate membrane filter, 25 mm in diameter and a pore size of 2 μm (Whatman, Breda, The Netherlands) was placed in the central part of a 3 cm culture dish (Greiner, Alphen aan den Rijn, The Netherlands) filled with 5 ml of Malt Extract Agar (MEA). A circular piece of human stratum corneum (SC) with a diameter of 1 cm was subsequently placed on the membrane filter and both were gently brushed with a paintbrush dipped in 70% ethanol. A microconidia suspension isolated from Trichphyton rubrum (CBS nr. 304.60 obtained from Centraal Bureau voor Schimmelcultures, Utrecht, The Netherlands, and prepared as described by Smijs G. M. T. et al (2004) in “Photodynamic treatment of the dermatophyte Trichophyton Rubrum and its microconidia with porphyrin sensitizers. PhotoChemistry and PhotoBiology, 80, 197 - 202”) was diluted to 1000 CFU/ml and 15 μl was inoculated on the circular sheet of human SC. The dish was placed in an incubator at 28° C. and at 17 hours after spore inoculation photodynamic treatment (PDT) was applied.
At 17 hours after spore inoculation, the membrane filter with SC containing spore inoculates was transported from the MEA dish to a 3 cm culture dish filled with 1035 μl incubation medium. The incubation medium contained 1 ml of distilled water with an adjusted pH (3.5, 4.5, 5.2, or 7.4) and 35 μl of a Sylsens B stock solution (Buchem, Apeldoorn, the Nederland) . To optimize the contact of the inoculates with the incubation medium, the membrane filter with the SC was turned upside down during the incubation period of 2 hours. The incubation was performed under continuous shaking conditions. Shortly before the illumination period the membrane filter containing the SC was turned back (surface SC now faces the lamp). In all cases, the illumination time was 1 hour using a red light irradiance of 30 mW/cm^2. This corresponds to a light dose of 108 J/cm^2. After the illumination the membrane filter with the SC were transported to a fresh MEA dish, placed in a 28° C. incubator and fungal growth was followed for several weeks. Dark controls were included, i.e. the same procedure was carried out except that the inoculated microconidia on human skin were treated with solvent and/or photosensitizer in the dark. In the light controls, the microconidia were treated with solvent (only) in the presence of light. The efficacy of the treatment was expressed as a relative frequency of complete inactivation (killing) of fungal growth detected at day 8 after spore inoculation. This was assessed microscopically with the use of a Zeiss Axiovert 25 (Germany). […] The treatment effect was followed for a period of several months. Every experiment contained 4 to 6 duplicates of all conditions and the experiments were repeated 3 times at least.
PDT of T. rubrum 17 hours after spore inoculation using the ex-vivo model, different concentrations of Sylsens B and a different pH (water medium). The numbers indicate the relative frequency of the fungicidal effect^1. Numbers between brackets give the number of tests performed.
The experiment with Sylsens B was repeated more extensively, for a longer period of time and with more samples. More specifically, the photodynamic efficacy of Sylsens B towards T. rubrum was tested at 17 (FIG. 2a), 48 (FIG. 2b) and 72 hours (FIG. 2c) after spore inoculation on human SC, at the following incubation pH values: Filled diamonds: pH 3.5, filled squares: pH 5.2 and filled triangles: pH 7.4.

[1] = test system: the fungus cultivated in suspension; test: binding of Sylsens B to the fungus cultivated in suspension / photodynamic effect with competing cations; format: cell-based, T. rubrum; conditions: Alcian Blue 160 μM versus Sylsens B 160 μM
Experimental: In the above experiments, deuteroporphyrin monomethylether (DP mme), an anionic porphyrin, was used as a control. […] The effect of calcium-ions was investigated by determining the photodynamic effect in the presence of 5 mM CaCl2 at pH 5.2. […] So, PDT may even be used to inactivate (kill) the growing fungus if measures are taken to prevent naturally present calcium from interfering with the treatment, in particular by using a chelating compound such as EDTA.

Compound	effect of acidic pH on photodynamic activity (T. rubrum)	competition for binding to the fungus [1]
C[n+]1ccc(-c2c3nc(c(-c4cc[n+](C)cc4)c4ccc([nH]4)c(-c4cc[n+](C)cc4)c4nc(c(-c5cc[n+](C)cc5)c5ccc2[nH]5)C=C4)C=C3)cc1.[Cl-].[Cl-].[Cl-].[Cl-] [meso-tetra(N-methyl-4-pyridyl)porphyrin tetrachloride, reference compound]	improved activity at acidic pH, albeit to a lesser extent than Sylsens B	
Alcian Blue [reference compound]		competed with Sylsens B
deuteroporphyrin monomethylether [DP mme, reference compound]	failed to display the observed pH effect	
